Test results from patent US12090204B2, “Photodynamic therapy compositions and methods of use thereof” (Pinnacle Biologics, Inc., priority 2020, dated 2024).
Where “and” joins values, the source holds several entries; their conditions need not be identical. Identical values can stand only once.

What was measured:
[1] = test system: Moraxella catarrhalis, Methicillin resistant Staphylococcus aureus (MRSA), Porphymonas gingivalis, Cutibacterium acnes, Peptostreptococcus anaerobius …; test: aPDT on 48 hour biofilms of various strains, CFU (FIG. 2); assay type: cell-based
Method: Biofilms were formed on glass coupons in culture dishes containing a bacterial inoculum for 48 hours under conditions specific to the strain. The glass coupon attached biofilms were then rinsed with saline, by dipping method, prior to the administration of the porfimer sodium. The biofilms were incubated in the dark for 15-30 minutes with a reconstituted saline solution of porfimer sodium at final concentrations ranging from 75 μg/ml-250 μg/ml. The porfimer sodium treated biofilms were then exposed to light doses at 630 nm light of 50-200 J/cm^2 at a power density of 150 milliwatts per cm^2. The light was delivered using a fiberoptic with a lens attached at the distal end to provide a uniform light field over the area of the samples being treated. The accuracy of the wavelength delivered was routinely checked using an Optometrics USA Inc. 1 nm/div monochromator. Power output of the laser was measured using a UDT/Gamma Scientific 371 optical power meter and an integrating sphere. Control samples were 1) bacterial suspensions without any light or porfimer sodium (NLNP); and 2) porfimer sodium alone in bacterial suspension without any light (NLP) and 3) light alone (L). The light alone control was exposed to the highest light dose used in that particular experiment. Light doses are in joules/cm^2. Power density was 150 mW/cm^2 for each in vitro trial. […]

Moraxella catarrhalis = test: abraded skin wounds, culture swabs (Example 3); assay type: in vivo, Yorkshire pigs
Description: (§1) On Day −2 of the study, pigs were anesthetized and the skin aseptically prepared. Superficial wounds were created using the tape strip method until punctate bleeding was observed. Also on Day −2, eight wounds per pig were inoculated with one of three bacterial cultures (Haemophilus influenza, Moraxella catarrhalis, or Staphylococcus aureus) at a concentration of 10^7-10^8 CFUs per mL. There were two control sites on each side. […] The wounds were covered, analgesia in the form of buprenorphine (IM, 0.03 mg/kg) was provided, and the animals were recovered from anesthesia.
(§2) On Day 0, culture swabs were collected from each wound prior to dosing. Six wounds per pig were treated with the test article and the laser light treatment. Culture swabs were collected from the test wounds 1 hour following laser light treatment and the animals were recovered from anesthesia. On Day 1, culture swabs were collected from the treated wounds and two wounds per pig were treated a second time with the test article and the laser light treatment. Culture swabs were collected from these test wounds 1 hour following laser light treatment and the animals were recovered from anesthesia. On Day 2, culture swabs were collected from each wound just prior to euthanasia.
(§3) Porfimer sodium administration: to prepare the test article, 75 mg of porfimer sodium was reconstituted with the currently FDA approved method of 31.8 mL of 0.9% sodium chloride, resulting in a stock solution of 2.5 mg/mL. Due to concerns about stability of the solution, the solution was used immediately. A 10 ml solution at a concentration of 0.3 mg/ml (300 mcg/ml), in 0.9% Sodium Chloride Injection (USP) was prepared. 300 μg of porfimer sodium was applied as a saline solution to infected wounds (except controls) and incubated for 30 minutes prior to activation. The sites were exposed to a 630 nm laser light for up to 20 minutes. The light source, a 630PDT laser. Each wound was exposed to 200 J/cm^2.

Haemophilus influenza = test: abraded skin wounds, culture swabs (Example 3); assay type: in vivo, Yorkshire pigs
Description: as §1, §2, §3

Staphylococcus aureus = test: abraded skin wounds, culture swabs (Example 3); assay type: in vivo, Yorkshire pigs; conditions: for Log CFU/site, Sa: sites 2, 7: hydrogel formulation, treated twice (LPT)
Description: as §1, §2, §3

S. pneumo (+) = test: porfimer sodium aPDT, planktonic culture; assay type: cell-based, Streptococcus pneumoniae; conditions: 630 nm, 100 J/cm2, porfimer sodium 125 μg/mL
Method: (§4) Bacteria were routinely cultured using tryptic soy broth or agar at 37° C. in a 5% CO2 incubator. Bacteria were isolated and suspended with 0.9% NaCl to an Optical Density (OD) of 0.1 taken at 630 nm, to generate the inoculum used for either planktonic or biofilm assays.
(§5) Experiments using planktonic cultures were carried out using M. catarrhalis, as a standard for further comparisons and to determine the effective drug concentration, porfimer sodium incubation time and light dose parameters which would provide an effective cell kill at the level of 5-7 logs. Once determined the experiments were repeated for all other bacterial strains examined.
(§6) The colony forming units (CFU) per mL of the starting inoculum for every experiment was determined by dilution plating. […]
(§7) Bacteria were exposed to 630 nm laser light via a fiber optic with a lens affixed to the distal end to provide a uniform diverging light field. […] Power output of the laser was measured using a UDT/Gamma Scientific 371 optical power meter and an integrating sphere. […]
(§8) Biofilms were formed on glass coupons in culture dishes containing a bacterial inoculum for 48 hours under conditions specific to the strain. […] Power output of the laser was measured using a UDT/Gamma Scientific 371 optical power meter and an integrating sphere. […]

Y. intermedia (−) = test: porfimer sodium aPDT, planktonic culture; assay type: cell-based, Yersinia intermedia; conditions: 630 nm, 200 J/cm2, porfimer sodium 125 μg/mL
Method: as §4, §5, §6, §7, §8

N. gonorrhoea (−) = test: porfimer sodium aPDT, planktonic culture; assay type: cell-based, Neisseria gonorrhea; conditions: 630 nm, 200 J/cm2, porfimer sodium 125 μg/mL
Method: as §4, §5, §6, §7, §8

P. anaerobius (+) = test: porfimer sodium aPDT, 48 hour biofilm culture; assay type: cell-based, Peptostreptococcus anaerobius; conditions: 630 nm, kill at 100 J/cm2 (light dose 75-100 J/cm2), porfimer sodium 250 μg/mL
Method: as §4
The colony forming units (CFU) per mL of the starting inoculum for every experiment was determined by dilution plating. Control samples were exposed to laser at 630 nm in the absence of porfimer sodium, porfimer sodium in the absence of laser exposure, or in saline alone in the absence of porfimer sodium and 630 nm laser light. All experimental samples were dilution plated to enumerate viable CFU's. Three independent replicates were performed for each reaction condition per strain per assay. […]
as §7, §8

[2] = 300 μg porfimer sodium, 30 minutes, 630 nm 200 J/cm^2

porfimer sodium
decrease of viability of the bacteria in biofilm ([1]; depending on the dose): 2-7 logs
log reduction at the highest light doses (complete reduction, all strains examined) ([1]; highest light doses used): ~7 log reduction
antimicrobial activity when applied to inoculated wounds (Moraxella catarrhalis; [2]): did not provide antimicrobial activity
Log CFU/site, Mc (Moraxella catarrhalis; sites 3, 8: porfimer sodium in saline, treated once (LPO), day 2, terminal): 3.1 × 10^6 Log CFU/site and 3.0 × 10^4 Log CFU/site
antimicrobial activity when applied to inoculated wounds (Haemophilus influenza; [2]): did not provide antimicrobial activity
Log CFU/site, Hi (Haemophilus influenza; sites 1, 6: hydrogel formulation, treated once (LPO), day 1, 24 h post tx): 3.0 × 10^5 Log CFU/site
Log CFU/site, Hi (Haemophilus influenza; sites 2, 7: hydrogel formulation, treated twice (LPT), day 0, 1 h-post tx): 1.3 × 10^4 Log CFU/site and 1.2 × 10^2 Log CFU/site
Log CFU/site, Hi (Haemophilus influenza; sites 2, 7: hydrogel formulation, treated twice (LPT), day 1, pre 2nd tx): 2.0 × 10^4 Log CFU/site and 2.3 × 10^3 Log CFU/site
antimicrobial activity when applied to inoculated wounds (Staphylococcus aureus; [2]): did not provide antimicrobial activity
Log CFU/site, Sa (Staphylococcus aureus; day 1, 1 h-post 2nd tx): 2.1 × 10^5 Log CFU/site and 2.2 × 10^4 Log CFU/site
Log CFU/site, Sa (Staphylococcus aureus; day 2, terminal): 1.2 × 10^5 Log CFU/site and 1.3 × 10^6 Log CFU/site
Rate of kill (S. pneumo (+)): >4Log
Rate of kill (Y. intermedia (−)): 7Log
Rate of kill (N. gonorrhoea (−)): 4Log
Rate of kill (P. anaerobius (+)): >6Log
